Results: patent US12173026B2, “PRMT5 inhibitors” (Merck Sharp & Dohme LLC, priority 2018, dated 2024)

What follows are molecules tested on symmetric dimethylation of arginine (SDMA) of PRMT5 substrates in MCF-7 cells (assay: PRMT5 Cell Target Engagement (TE) Assay). Conditions: Homo sapiens, MCF7, 72 h; MCF-7 cells treated for 3 days; nuclear SDMA by high content imaging; top concentration 10000 nM.
Format: cell-based
How it was run: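 MCF-7 cells treated 3 days at 37 °C with 10-point 1:3 titration from 10000 nM top. Fixed cells stained with anti-SDMA antibody plus Alexa488 secondary and Hoechst; nuclear fluorescence quantified by high-content imaging versus DMSO wells. EC50 from 4-parameter fit of percent fluorescence vs log concentration.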

Structure (SMILES)	EC50
C[C@]1(COc2ccc3cc(Br)c(N)nc3c2)O[C@@H](n2ccc3c(N)ncnc32)[C@H](O)[C@@H]1O [Example 13, (2R,3S,4R,5R)-2-(((2-amino-3-bromoquinolin-7-yl)oxy)methyl)-5-(4-amino-7H-pyrrolo[2,3-d]pyrimidin-7-yl)-2-methyltetrahydrofuran-3,4-diol]	14 nM
Nc1nc2cc(C[C@@H]3CC[C@@]4(O)[C@@H]3O[C@@H](n3ccc5c(N)ncnc53)[C@@H]4O)ccc2cc1F [Example 124, (2R,3R,3aS,6S,6 aR)-6-((2-amino-3-fluoroquinolin-7-yl)methyl)-2-(4-amino-7H-pyrrolo[2,3-d]pyrimidin-7-yl)hexahydro-3aH-cyclopenta[b]furan-3,3a-diol]	2.3 nM
Cc1ncnc2c1ccn2[C@@H]1C[C@](C)(CCc2ccc3cc4c(nc3c2)NCC4)[C@@H](O)[C@H]1O [Example 110, (1S,2R,3S,5R)-3-(2-(2,3-dihydro-1H-pyrrolo[2,3-b]quinolin-7-yl)ethyl)-3-methyl-5-(4-methyl-7H-pyrrolo[2,3-d]pyrimidin-7-yl)cyclopentane-1,2-diol]	39.6 nM
C[C@]1(CCc2ccc3cc(Br)c(N)nc3c2)O[C@@H](n2ccc3c(N)ncnc32)[C@H](O)[C@]1(C)O [Example 4, (2R,3S,4R,5R)-2-(2-(2-amino-3-bromoquinolin-7-yl)ethyl)-5-(4-amino-7H-pyrrolo[2,3-d]pyrimidin-7-yl)-2,3-dimethyltetrahydrofuran-3,4-diol]	186 nM
Cc1ncnc2c1ccn2[C@@H]1O[C@@H]2[C@@H](Oc3ccc4cc(F)c(N)nc4c3)CC[C@]2(O)[C@H]1O [Example 86, (2R,3R,3aS,6S,6aR)-6-((2-amino-3-fluoroquinolin-7-yl)oxy)-2-(4-methyl-7H-pyrrolo[2,3-d]pyrimidin-7-yl)hexahydro-3aH-cyclopenta[b]furan-3,3a-diol]	37.5 nM
CC(C)c1ncnc2c1ccn2[C@@H]1O[C@@H]2[C@H](Cc3ccc4cc(Br)c(N)nc4c3)CC[C@]2(O)[C@H]1O [Example 83, (2R,3R,3aS,6S,6aR)-6-((2-amino-3-bromoquinolin-7-yl)methyl)-2-(4-isopropyl-7H-pyrrolo[2,3-d]pyrimidin-7-yl)hexahydro-3aH-cyclopenta[b]furan-3,3a-diol]	41.1 nM
Cc1ncnc2c1ccn2[C@@H]1O[C@@H]2[C@@H](Oc3ccc4cc5c(nc4c3)NCC5)CC[C@]2(O)[C@H]1O [Example 89, (2R,3R,3aS,6S,6aR)-6-((2,3-dihydro-1H-pyrrolo[2,3-b]quinolin-7-yl)oxy)-2-(4-methyl-7H-pyrrolo[2,3-d]pyrimidin-7-yl)hexahydro-3aH-cyclopenta[b]furan-3,3a-diol]	4.4 nM
Nc1ncnc2c1ccn2[C@@H]1O[C@@H]2[C@@H](Oc3ccc4cc5c(nc4c3)NCC5)CC[C@]2(O)[C@H]1O [Example 75, (2R,3R,3aS,6S,6aR)-2-(4-amino-7H-pyrrolo[2,3-d]pyrimidin-7-yl)-6-((2,3-dihydro-1H-pyrrolo[2,3-b]quinolin-7-yl)oxy)hexahydro-3aH-cyclopenta[b]furan-3,3a-diol]	5 nM
Nc1nc2c(F)c(C[C@@H]3CC[C@@]4(O)[C@@H]3O[C@@H](n3ccc5c(N)ncnc53)[C@@H]4O)ccc2cc1F [Example 20, (2R,3R,3aS,6S,6aR)-6-[(2-amino-3,8-difluoroquinolin-7-yl)methyl]-2-(4-amino-7H-pyrrolo[2,3-d]pyrimidin-7-yl)hexahydro-3aH-cyclopenta[b]furan-3,3a-diol]	18.6 nM
Cc1ncnc2c1ccn2[C@@H]1C[C@@H]2[C@@H](Cc3ccc4cc(F)c(N)nc4c3)CC[C@]2(O)[C@H]1O [Example 18, (1S,2R,3aR,4R,6aR)-4-((2-amino-3-fluoroquinolin-7-yl)methyl)-2-(4-methyl-7H-pyrrolo[2,3-d]pyrimidin-7-yl)hexahydropentalene-1,6a(1H)-diol]	10.6 nM
Cc1nc(N)c2c(F)cn([C@@H]3O[C@@H]4[C@H](Cc5ccc6cc(F)c(N)nc6c5)CC[C@]4(O)[C@H]3O)c2n1 [Example 44, (2R,3R,3aS,6S,6aR)-6-((2-amino-3-fluoroquinolin-7-yl)methyl)-2-(4-amino-5-fluoro-2-methyl-7H-pyrrolo[2,3-d]pyrimidin-7-yl)hexahydro-3aH-cyclopenta[b]furan-3,3a-diol 2,2,2-trifluoroacetate]	8.8 nM

Stronger by EC50, values ahead:

EC50	Structure (SMILES)
2.1 nM	Nc1ncnc2c1ccn2[C@@H]1O[C@@H]2[C@@H](Oc3ccc4ccc(NCC(F)(F)F)nc4c3)CC[C@]2(O)[C@H]1O [Example 57, (2R,3R,3aS,6S,6aR)-2-(4-amino-7H-pyrrolo[2,3-d]pyrimidin-7-yl)-6-((2-((2,2,2-trifluoroethyl)amino)quinolin-7-yl)oxy)hexahydro-3aH-cyclopenta[b]furan-3,3a-diol]
1.2 nM	Nc1nc2cc(O[C@H]3CC[C@@]4(O)[C@@H]3O[C@@H](n3cc(F)c5c(N)ncnc53)[C@@H]4O)ccc2cc1Br [Example 56, (2R,3R,3aS,6S,6aR)-6-((2-amino-3-bromoquinolin-7-yl)oxy)-2-(4-amino-5-fluoro-7H-pyrrolo[2,3-d]pyrimidin-7-yl)hexahydro-3aH-cyclopenta[b]furan-3,3a-diol]
0.5 nM	Nc1nc2cc(C[C@@H]3CC[C@@]4(O)[C@@H]3O[C@@H](n3ccc5c(N)ncnc53)[C@@H]4O)cc(F)c2cc1Cl [Example 21, (2R,3R,3aS,6S,6aR)-6-[(2-amino-3-chloro-5-fluoroquinolin-7-yl)methyl]-2-(4-amino-7H-pyrrolo[2,3-d]pyrimidin-7-yl)hexahydro-3aH-cyclopenta[b]furan-3,3a-diol]
1.5 nM	Cc1ncnc2c1ccn2[C@@H]1O[C@@H]2[C@H](Cc3ccc4cc(C(F)F)c(N)nc4c3)CC[C@]2(O)[C@H]1O [Example 23, (2R,3R,3aS,6S,6aR)-6-((2-amino-3-(difluoromethyl)quinolin-7-yl)methyl)-2-(4-methyl-7H-pyrrolo[2,3-d]pyrimidin-7-yl)hexahydro-3aH-cyclopenta[b]furan-3,3a-diol]
0.8 nM	Cc1nc(N)c2ccn([C@@H]3C[C@@H]4[C@H](Cc5ccc6cc(Cl)c(N)nc6c5)CC[C@]4(O)[C@H]3O)c2n1 [Example 31, (1S,2R,3aR,4S,6aR)-2-(4-amino-2-methyl-7H-pyrrolo[2,3-d]pyrimidin-7-yl)-4-((2-amino-3-chloroquinolin-7-yl)methyl) hexahydropentalene-1,6a(1H)-diol 2,2,2-trifluoroacetate]
1.3 nM	Nc1nc2cc(C[C@@H]3CC[C@@]4(O)[C@@H]3O[C@@H](n3ccc5c(N)ncnc53)[C@@H]4O)ccc2cc1Br [Example 9, (2R,3R,3aS,6S,6aR)-6-((2-amino-3-bromoquinolin-7-yl)methyl)-2-(4-amino-7H-pyrrolo[2,3-d]pyrimidin-7-yl)hexahydro-2H-cyclopenta[b]furan-3,3a-diol]
0.3 nM	Nc1nc2cc(C[C@@H]3CC[C@@]4(O)[C@@H]3C[C@@H](n3cc(F)c5c(N)ncnc53)[C@@H]4O)ccc2cc1Br [Example 42, (1S,2R,3aR,4S,6aR)-4-((2-amino-3-bromoquinolin-7-yl)methyl)-2-(4-amino-5-fluoro-7H-pyrrolo[2,3-d]pyrimidin-7-yl)hexahydropentalene-1,6a(1H)-diol]
1.3 nM	CNc1ncnc2c1ccn2[C@@H]1C[C@@H]2[C@H](Cc3ccc4cc(Br)c(N)nc4c3)CC[C@]2(O)[C@H]1O [Example 97, (1S,2R,3aR,4S,6aR)-4-((2-amino-3-bromoquinolin-7-yl)methyl)-2-(4-(methylamino)-7H-pyrrolo[2,3-d]pyrimidin-7-yl)hexahydropentalene-1,6a(1H)-diol]
1.7 nM	Nc1nc2cc(C[C@@H]3CC[C@@]4(O)[C@@H]3O[C@@H](n3ccc5c(N)ncnc53)[C@@H]4O)cc(F)c2cc1F [Example 29, (2R,3R,3aS,6S,6aR)-6-[(2-amino-3,5-difluoroquinolin-7-yl)methyl]-2-(4-amino-7H-pyrrolo[2,3-d]pyrimidin-7-yl)hexahydro-3aH-cyclopenta[b]furan-3,3a-diol]
0.7 nM	C[C@@]1(O)[C@@H](COc2ccc3cc(Br)c(N)nc3c2)C[C@@H](n2ccc3c(N)ncnc32)[C@@H]1O [Example 2]
2 nM	Nc1nc2cc(O[C@H]3CC[C@@]4(O)[C@@H]3O[C@@H](n3cc(F)c5c(N)ncnc53)[C@@H]4O)ccc2cc1F [Example 73, (2R,3R,3aS,6S,6aR)-6-((2-amino-3-fluoroquinolin-7-yl)oxy)-2-(4-amino-5-fluoro-7H-pyrrolo[2,3-d]pyrimidin-7-yl)hexahydro-3aH-cyclopenta[b]furan-3,3a-diol]
